Target: T1, RecA (Escherichia coli, UniProt P0A7G6)
T1 construct: assay 'as previously described'; homo-oligomer
Assay: coupled ATPase assay, ADP to H2O2, amplex red / resorufin fluorescence
Assay type: biochemical

T1 sequence (P0A7G6 2-353): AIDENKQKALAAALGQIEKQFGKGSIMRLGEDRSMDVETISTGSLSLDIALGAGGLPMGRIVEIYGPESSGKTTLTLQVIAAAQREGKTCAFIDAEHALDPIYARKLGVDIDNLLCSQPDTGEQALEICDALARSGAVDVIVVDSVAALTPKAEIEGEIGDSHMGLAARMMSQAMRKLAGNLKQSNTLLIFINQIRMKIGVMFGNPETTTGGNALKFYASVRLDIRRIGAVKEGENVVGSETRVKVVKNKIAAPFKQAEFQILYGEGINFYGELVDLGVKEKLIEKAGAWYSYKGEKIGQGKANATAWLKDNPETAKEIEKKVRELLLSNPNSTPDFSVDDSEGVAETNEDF

Molecule NCCc1cc(O)c(O)cc1O [6-hydroxydopamine] has an IC50 of 23 µM.

Reference: PMC5570288, “Hot-spot identification on a broad class of proteins and RNA suggest unifying principles of molecular recognition” (PLoS ONE, 2017)
